Data as given in US9949992B2, “Bisphosphonate compositions and methods for treating and\or reducing cardiac dysfunction” (DUKE UNIVERSITY, priority 2011, dated 2018).
Each block holds one molecule with its values, some of them ahead of it.

Tests used:
[1] = Hydroxyapatite (HAP) affinity by chromatographic profiling on HAP column; assay type: binding; conditions: phosphate gradient 1 mM to 1000 mM, pH 6.8
[2] = molecular target: T1, human farnesyl pyrophosphate synthase (FPPS) (Homo sapiens, UniProt P14324); experiment: FPPS inhibition, in vitro, recombinant enzyme; assay type: biochemical; conditions: GPP and IPP 10 μM each, 37° C., read-out: FFPPS nM IC50
T1 construct: made in house
T1 sequence (P14324 67-419 limits assumed): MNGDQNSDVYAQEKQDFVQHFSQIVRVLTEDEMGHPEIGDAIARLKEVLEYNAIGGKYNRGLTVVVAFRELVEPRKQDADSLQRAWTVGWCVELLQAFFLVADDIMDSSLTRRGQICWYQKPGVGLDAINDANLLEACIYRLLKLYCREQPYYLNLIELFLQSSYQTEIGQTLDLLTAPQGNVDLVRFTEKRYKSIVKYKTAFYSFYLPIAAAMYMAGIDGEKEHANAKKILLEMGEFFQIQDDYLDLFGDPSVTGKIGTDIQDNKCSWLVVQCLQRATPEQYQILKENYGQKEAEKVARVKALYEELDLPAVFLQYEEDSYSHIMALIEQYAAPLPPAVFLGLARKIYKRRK

ERK = experiment: Expression and activation (phosphorylation) of ERK in myocardial tissue, SHAM or TAC mice, immunoblot and densitometry; assay type: in vivo, mouse

HAP mineral binding (retention time in mins) [1]: 6.17 min
IC50 [2]: 2.5 nM
Structure (SMILES): O=P(O)(O)C(F)(Cc1cnc2ccccn12)P(=O)(O)O [Ox-14, 1-fluoro-2-(imidazo-[1,2-a]pyridine-3-yl)-ethyl-bisphosphonic acid]
level of expression of ERK (ERK; SHAM animals, FIG. 1, myocardial lysate, subcutaneous dosing): did not change
phosphorylation of ERK (ERK; SHAM animals, FIG. 1 and FIG. 2, myocardial lysate): not as evident
pERK/tERK ratio, fold increase (ERK; SHAM group, with respect to saline treated SHAM animals, FIG. 3): ~3 fold
level of phosphorylation of ERK (ERK; TAC conditioned animals, FIG. 2): substantial increase
pERK/tERK ratio, fold increase (ERK; TAC group relative to saline SHAM group, FIG. 3): ~5 fold
pERK/tERK activity relative to zoledronic acid administered TAC group (ERK; TAC group, FIG. 3): about double

Structure (SMILES): CCCCCN(C)CCC(O)(P(=O)(O)O)P(=O)(O)O [Ibandronate]
HAP mineral binding (retention time in mins) [1]: ~11 min

Structure (SMILES): O=P(O)(O)C(O)(Cc1cnc2ccccn12)P(=O)(O)O [Minodronate]
HAP mineral binding (retention time in mins) [1]: 10.33 min

HAP mineral binding (retention time in mins) [1]: 9.97 min
Structure (SMILES): O=P(O)(O)C(O)(Cc1cccnc1)P(=O)(O)O [Risedronate]
